# Publication PMC11995724, “Antibiotic target discovery by integrated phenotypic and activity-based profiling of electrophilic fragments” (Cell chemical biology, 2025)
# Where a name gives a salt, the structure may show the parent alone.
# Test: in vitro
# Conditions: human, hek293t cells
row,Structure (SMILES),"viability at 48 h, 25 µM [%]"
1,"CC(=O)N(C)Cc1ccc(C(=O)CCl)cc1 [10-H04, N-{[4-(2-chloroacetyl)phenyl]methyl}-N-methylacetamide]",64
2,"Cc1cccc(N2C(=O)C=CC2=O)c1C [10-H05, 1-(2,3-dimethylphenyl)-2,5-dihydro-1H-pyrrole-2,5-dione]",94.3
3,"O=C(CCl)c1ccc(CC(=O)N2CCOCC2)s1 [10-H06, 2-chloro-1-{5-[2-(morpholin-4-yl)-2-oxoethyl]thiophen-2-yl}ethan-1-one]",71.7
4,"COc1ccc(CCN2C(=O)C=CC2=O)cc1OC [10-H07, 1-[2-(3,4-dimethoxyphenyl)ethyl]-2,5-dihydro-1H-pyrrole-2,5-dione]",101
5,"CSc1cc(C(=O)CCl)ccc1NC(C)=O [10-H08, N-[4-(2-chloroacetyl)-2-(methylsulfanyl)phenyl]acetamide]",8.39
6,"Cc1cccc2[nH]cc(C(=O)CCl)c12 [10-H09, 2-chloro-1-(4-methyl-1H-indol-3-yl)ethan-1-one]",5.75
7,"CC(C)n1ccnc1C(=O)CCl [10-H10, 2-chloro-1-[1-(propan-2-yl)-1H-imidazol-2-yl]ethan-1-one]",20.4
8,"O=C(Nc1cc(F)ccc1F)N1CCSSCC1 [10-H11, N-(2,5-difluorophenyl)-1,2,5-dithiazepane-5-carboxamide]",94.9
9,"CCCn1c(N)c(C(=O)CCl)c(=O)n(C)c1=O [10-H12, 6-amino-5-(2-chloroacetyl)-3-methyl-1-propyl-1,2,3,4-tetrahydropyrimidine-2,4-dione]",86.3
10,"COc1cc([N+](=O)[O-])ccc1N1C(=O)C=CC1=O [10-H13, 1-(2-methoxy-4-nitrophenyl)-2,5-dihydro-1H-pyrrole-2,5-dione]",97.6
11,"CCc1ccc(CC)c(C(=O)CCl)c1 [10-H14, 2-chloro-1-(2,5-diethylphenyl)ethan-1-one]",33.6
12,"O=C1C=CC(=O)N1c1cc([N+](=O)[O-])ccc1Cl [10-H15, 1-(2-chloro-5-nitrophenyl)-2,5-dihydro-1H-pyrrole-2,5-dione]",126
13,"Cc1ccc(NC(=O)N2CCN(C(=O)C=CCN(C)C)CC2)cc1 [10-H16, 4-[4-(dimethylamino)but-2-enoyl]-N-(4-methylphenyl)piperazine-1-carboxamide]",94.2
14,"O=C(CCl)c1ccc2c(c1)-c1ccccc1C2 [10-H17, 2-chloro-1-(9H-fluoren-3-yl)ethan-1-one]",51.2
15,"Cc1cc(C(=O)CCl)c(C)n1-c1ccc(Cl)cc1 [10-H18, 2-chloro-1-[1-(4-chlorophenyl)-2,5-dimethyl-1H-pyrrol-3-yl]ethan-1-one]",0.517
16,"CS(=O)(=O)N1CCCc2cc(C(=O)CCl)ccc21 [10-H19, 2-chloro-1-(1-methanesulfonyl-1,2,3,4-tetrahydroquinolin-6-yl)ethan-1-one]",72
17,"Cc1ccccc1-n1c(C)cc(C(=O)CCl)c1C [10-H20, 2-chloro-1-[2,5-dimethyl-1-(2-methylphenyl)-1H-pyrrol-3-yl]ethan-1-one]",0.349
18,"COc1ccc(NC(=O)N2CCSSCC2)cc1 [10-H21, N-(4-methoxyphenyl)-1,2,5-dithiazepane-5-carboxamide]",103
19,"COc1ccc(C(=O)C(C)Cl)cc1 (stereo not drawn) [10-H22, 2-chloro-1-(4-methoxyphenyl)propan-1-one]",73.6

row,Structure (SMILES),"viability at 48 h, 25 µM [%]"
1,"NC(=O)CCc1ccc(C(=O)CCl)cc1 [10-I03, 3-[4-(2-chloroacetyl)phenyl]propanamide]",4.69
2,"Cc1cc(C(=O)CCl)c(C)n1-c1cc(Cl)cc(Cl)c1 [10-I04, 2-chloro-1-[1-(3,5-dichlorophenyl)-2,5-dimethyl-1H-pyrrol-3-yl]ethan-1-one]",0.227
3,"NS(=O)(=O)c1cccc(N2C(=O)C=CC2=O)c1 [10-I05, 3-(2,5-dioxo-2,5-dihydro-1H-pyrrol-1-yl)benzene-1-sulfonamide]",93.4
4,"Cc1cc(C(=O)CCl)c(C)c(C)c1C [10-I06, 2-chloro-1-(2,3,4,5-tetramethylphenyl)ethan-1-one]",0.728
5,"CN(C)C(=O)c1csc(C(=O)CCl)c1 [10-I07, 5-(2-chloroacetyl)-N,N-dimethylthiophene-3-carboxamide]",56.6
6,"Cc1cc(C(=O)CCl)c(C)n1C(c1ccccc1)c1ccccc1 [10-I08, 2-chloro-1-[1-(diphenylmethyl)-2,5-dimethyl-1H-pyrrol-3-yl]ethan-1-one]",1.32
7,"O=C(CCl)c1ccncc1F [10-I09, 2-chloro-1-(3-fluoropyridin-4-yl)ethan-1-one hydrochloride]",85
8,"CC(=O)NCc1ccc(C(=O)CCl)o1 [10-I10, N-{[5-(2-chloroacetyl)furan-2-yl]methyl}acetamide]",86.8
9,"COC(=O)c1cccc(C(=O)CCl)c1 [10-I11, methyl 3-(2-chloroacetyl)benzoate]",1.87
10,"COc1ccc(-n2c(C)cc(C(=O)CCl)c2C)cc1 [10-I12, 2-chloro-1-[1-(4-methoxyphenyl)-2,5-dimethyl-1H-pyrrol-3-yl]ethan-1-one]",0.472
11,"CS(=O)(=O)c1ccc(C(=O)CCl)cc1 [10-I13, 2-chloro-1-(4-methanesulfonylphenyl)ethan-1-one]",65.1
12,"O=C(CCl)c1ccc2[nH]c(=O)[nH]c2c1 [10-I14, 5-(2-chloroacetyl)-2,3-dihydro-1H-1,3-benzodiazol-2-one]",1.71
13,"O=C(CCl)Cc1cc(Cl)cc(Cl)c1 [10-I15, 1-chloro-3-(3,5-dichlorophenyl)propan-2-one]",3.97
14,"Cn1c(N)c(C(=O)CCl)c(=O)[nH]c1=O [10-I16, 6-amino-5-(2-chloroacetyl)-1-methyl-1,2,3,4-tetrahydropyrimidine-2,4-dione]",104
15,"CC(C)c1ccc(CC(=O)CCl)cc1 [10-I17, 1-chloro-3-[4-(propan-2-yl)phenyl]propan-2-one]",73.5
16,"O=C(CCl)c1ccc(F)cc1F [10-I18, 2-chloro-1-(2,4-difluorophenyl)ethan-1-one]",77.2
17,"Cc1cccc(CC(=O)CCl)c1 [10-I19, 1-chloro-3-(3-methylphenyl)propan-2-one]",68.3
18,"CC(=O)N1c2ccc(C(=O)CCl)cc2CC1C (stereo not drawn) [10-I20, 1-(1-acetyl-2-methyl-2,3-dihydro-1H-indol-5-yl)-2-chloroethan-1-one]",3.53
19,"CCn1cc(N2C(=O)C=CC2=O)cn1 [10-I21, 1-(1-ethyl-1H-pyrazol-4-yl)-2,5-dihydro-1H-pyrrole-2,5-dione]",38.5

row,Structure (SMILES),"viability at 48 h, 25 µM [%]"
1,"CC(C)C(C(=O)O)N1C(=O)C=CC1=O (stereo not drawn) [10-I22, 2-(2,5-dioxo-2,5-dihydro-1H-pyrrol-1-yl)-3-methylbutanoic acid]",106
2,"O=C(CCl)c1ccccn1 [10-J03, 2-chloro-1-(pyridin-2-yl)ethan-1-one]",94.4
3,"N#CC(C(=O)CCl)=C1Nc2ccccc2S1 [10-J04, 4-chloro-2-(2,3-dihydro-1,3-benzothiazol-2-ylidene)-3-oxobutanenitrile]",0.855
4,"Cc1nn(CCC(=O)N2CCSSCC2)c(C)c1[N+](=O)[O-] [10-J05, 3-(3,5-dimethyl-4-nitro-1H-pyrazol-1-yl)-1-(1,2,5-dithiazepan-5-yl)propan-1-one]",96.8
5,"Cn1cc(C(=O)CCl)cc1C(N)=O [10-J06, 4-(2-chloroacetyl)-1-methyl-1H-pyrrole-2-carboxamide]",1.55
6,"NC(=O)Nc1ccc(C(=O)CCl)cc1 [10-J07, [4-(2-chloroacetyl)phenyl]urea]",108
7,"Cc1cc(C(=O)CCl)c(C)[nH]1 [10-J08, 2-chloro-1-(2,5-dimethyl-1H-pyrrol-3-yl)ethan-1-one]",1.07
8,"O=S(=O)(c1cc(Cl)cc(Cl)c1)N1CCSSCC1 [10-J09, 5-(3,5-dichlorobenzenesulfonyl)-1,2,5-dithiazepane]",102
9,"Cn1ncc(C(=O)CCl)n1 [10-J10, 2-chloro-1-(2-methyl-2H-1,2,3-triazol-4-yl)ethan-1-one]",85.5
10,"CC(=O)Nc1ccc(NC(=O)N2CCSSCC2)cc1 [10-J11, N-(4-acetamidophenyl)-1,2,5-dithiazepane-5-carboxamide]",120
11,"Cc1cc(C(=O)CCl)c(C)n1-c1ccc(C(C)C)cc1 [10-J12, 2-chloro-1-{2,5-dimethyl-1-[4-(propan-2-yl)phenyl]-1H-pyrrol-3-yl}ethan-1-one]",0.754
12,"Cc1ccccc1N1C(=O)C=CC1=O [10-J13, 1-(2-methylphenyl)-2,5-dihydro-1H-pyrrole-2,5-dione]",109
13,"Cc1cc(C(=O)CCl)c(C)n1-c1ccc(C(F)(F)F)cc1 [10-J14, 2-chloro-1-{2,5-dimethyl-1-[4-(trifluoromethyl)phenyl]-1H-pyrrol-3-yl}ethan-1-one]",0.425
14,"COc1ccc(N2C(=O)C=CC2=O)c(OC)c1 [10-J15, 1-(2,4-dimethoxyphenyl)-2,5-dihydro-1H-pyrrole-2,5-dione]",109
15,"CSc1cccc(-n2c(C)cc(C(=O)CCl)c2C)c1 [10-J16, 2-chloro-1-{2,5-dimethyl-1-[3-(methylsulfanyl)phenyl]-1H-pyrrol-3-yl}ethan-1-one]",0.898
16,"COc1ccc(C(=O)C(C)Cl)c(OC)c1 (stereo not drawn) [10-J17, 2-chloro-1-(2,4-dimethoxyphenyl)propan-1-one]",91.9
17,"Nc1c(C(=O)CCl)c(=O)[nH]c(=O)n1Cc1ccccc1 [10-J18, 6-amino-1-benzyl-5-(2-chloroacetyl)-1,2,3,4-tetrahydropyrimidine-2,4-dione]",88.2
18,"O=C1C=CC(=O)N1c1ccc(OC(F)(F)F)cc1 [10-J19, 1-[4-(trifluoromethoxy)phenyl]-2,5-dihydro-1H-pyrrole-2,5-dione]",85.4
19,"CCOC(=O)c1c(C)[nH]c(C(=O)CCl)c1C [10-J20, ethyl 5-(2-chloroacetyl)-2,4-dimethyl-1H-pyrrole-3-carboxylate]",1.66
